Test results published in patent publication US9394562B2, “Soil microorganism, novel oxidoreductase separated from the soil microorganism, gene encoding the oxidoreductase, and method for producing aglycones using the microorganism, the oxidoreductase and the gene” (AMOREPACIFIC CORPORATION, priority 2010, dated 2016).

What was measured:
Type in all cases: biochemical
[1] = test system: oxidoreductase enzyme derived from Rhizobium sp. GIN611; test: Substrate specificity for glycone binding (α-/β-bonding); conditions: nitrophenyl glycoside used as substrate of the enzyme
Text: Specificity of the enzyme for α-bonding and β-bonding was investigated using 4-nitrophenyl α-D-glucopyranoside, 4-nitrophenyl β-D-glucopyranoside, 4-nitrophenyl α-D-galactopyranoside and p-nitrophenyl β-D-galactopyranoside.

[2] = test system: deglycosylating enzyme isolated from the selected Rhizobium sp. GIN611; test: Substrate specificity of deglycosylating enzyme isolated from Rhizobium sp. GIN611; conditions: ginsenoside as substrate
Text: Investigation of the substrate specificity using a deglycosylating enzyme isolated from the selected Rhizobium sp. […] The inventors of the present disclosure have disrupted and centrifuged the microorganism and produced a cell extract comprising the active enzyme from a supernatant.

[3] = test system: oxidoreductase enzyme derived from Rhizobium sp. GIN611; test: Deglycosylation activity for flavonoid glycoside substrates by MALDI mass spectrometry; conditions: flavonoid glycoside as substrate
Text: After reacting using ginsenoside Rh2, ginsenoside F2, ginsenoside Rb1, ginsenoside Rb2, ginsenoside Rc, ginsenoside Rb3, ginsenoside F1, ginsenoside Re or the isoflavone daidzin as a substrate, followed by extraction by adding the same volume of ethyl acetate, the ethyl acetate layer was dried and then dissolved again in ethanol, which was subjected to activity measurement by MALDI mass spectrometry.
The oxidoreductase enzyme derived from Rhizobium sp. GIN611, whose expression was induced, was reacted with the flavonoid icariin, camelliaside A or camelliaside B as a substrate in the manner described above and activity was measured by MALDI mass spectrometry. Oxidation of galactose attached to camelliaside A and deglycosylation activity thereof were identified. Also, oxidation of xylose attached to camelliaside B and deglycosylation activity thereof were identified. That is to say, the enzyme was confirmed to show deglycosylation activity for sugars attached to the flavonoid-based aglycones and to capable of degrading not only glucose but also galactose and xylose by oxidizing them (see FIGS. 12 and 13).

| SMILES | Relative activity (%) [1] | further results |
| --- | --- | --- |
| O=[N+]([O-])c1ccc(O[C@@H]2O[C@H](CO)[C@H](O)[C@H](O)[C@H]2O)cc1 [p-Nitrophenyl β-D-galactopyranoside] | 400% | – |
| CC(C)=CCC[C@](C)(O[C@@H]1O[C@H](CO)[C@@H](O)[C@H](O)[C@H]1O)[C@H]1CC[C@]2(C)[C@@H]1[C@H](O)C[C@@H]1[C@@]3(C)CC[C@H](O)C(C)(C)[C@@H]3CC[C@]12C [ginsenoside CK, 20-O-β-D-glucopyranosyl-20(S)-protopanaxadiol] | – | activity for substrate [2]: high activity |
| O=[N+]([O-])c1ccc(O[C@H]2O[C@H](CO)[C@@H](O)[C@H](O)[C@H]2O)cc1 [p-Nitrophenyl α-D-glucopyranoside] | 103% | – |
| O=[N+]([O-])c1ccc(O[C@@H]2O[C@H](CO)[C@@H](O)[C@H](O)[C@H]2O)cc1 [p-Nitrophenyl β-D-glucopyranoside] | 100% | – |
| C[C@@H]1O[C@@H](OC[C@H]2O[C@@H](Oc3c(-c4ccc(O)cc4)oc4cc(O)cc(O)c4c3=O)[C@H](O[C@@H]3OC[C@@H](O)[C@H](O)[C@H]3O)[C@@H](O)[C@@H]2O)[C@H](O)[C@H](O)[C@H]1O [camelliaside B, kaempferol 3-O-(2-O-xylopyranosyl-6-O-rhamnopyranosyl)glucopyranoside] | – | oxidation of attached sugar and deglycosylation activity [3]: identified |
| C[C@@H]1O[C@@H](OC[C@H]2O[C@@H](Oc3c(-c4ccc(O)cc4)oc4cc(O)cc(O)c4c3=O)[C@H](O[C@@H]3O[C@H](CO)[C@H](O)[C@H](O)[C@H]3O)[C@@H](O)[C@@H]2O)[C@H](O)[C@H](O)[C@H]1O [camelliaside A, kaempferol 3-O-(2-O-galactopyranosyl-6-O-rhamnopyranosyl)glucopyranoside] | – | oxidation of attached sugar and deglycosylation activity [3]: identified |
| O=[N+]([O-])c1ccc(O[C@H]2O[C@H](CO)[C@H](O)[C@H](O)[C@H]2O)cc1 [p-Nitrophenyl α-D-galactopyranoside] | 201% | – |
